# Measured values: patent publication US7635722B1, “Chemical induced intracellular hyperthermia” (priority 1998, dated 2009)
# Read-outs that look alike come from different tables or passages of the source.
# Assays:
# glioma = assay: DNP enhanced PET-FDG scan, glioma (Example 7); type: in vivo, human; set-up: key to metabolic grade of FDG uptake, selected target / metabolic grade, hypermetabolic component in the tumor area / metabolic grade, remaining viable tumor: I: FDG uptake less than contralateral white matter; II: uptake between the levels in contralateral white and gray matter; III: FDG uptake equal to or greater than in contralateral gray matter
# Excerpt: Pretreatment protocol: three days prior to DNP dosing and repeat PET-FDG scan, the patient's dosage of phenyloin was increased from 100-mg three times daily to 200-mg three times a day. The same positron emission tomogram, a CTI-Siemens 933/08-12 which provides a 6.75-mm adjacent slices and in-plane spatial resolution (full-width at half maximum) of ˜5 mm, was to be used. The highest level of non to DNP stimulated FDG uptake in the tumor area was to be compared and qualitatively graded by two radiologists. Independently, each investigator was to visually evaluate the positron emission tomogram and use the following metabolic grading scale: I, FDG uptake less than contralateral white matter; II, uptake between the levels in contralateral white and gray matter; III, FDG uptake equal to or greater than in contralateral gray matter.
# Diagnostic—treatment protocol: the patient was given a 300 mg capsule of DNP (approximately 4 mg/kg body weight) three hours prior to undergoing a PET-FDG scan. Forty minutes prior to the emission scan they were intravenously injected with a bolus of FDG according to standard methodology. Immediately prior to the 20-minute emission scan the patients VO2 uptake was 40% above that at baseline. The patients DNP/VO2 flow chart is FIG. 24.
# [1] = type: in vivo, human
# Description: Placement of physiologic monitoring sensors, intravenous fluids, supplemental oxygen (4 l/min) and optional oral diazepam sedation (5-10 mg) is initiated prior to treatment. Patients receive 0.85 to 1.0 liter of intravenous (IV) 5% dextrose in 0.25 normal saline per hour alternated with 5% dextrose in 0.5 normal saline plus 7.5 to 10 meq of KCl per liter to insure a urinary output of no less than 1 ml/kg/hr. […] Two hours after treatment and 48 hours post-treatment, serum chemistries and hematologic profiles are repeated. A typical patient flow chart is depicted in FIG. 14.
# Pretreatment protocol: the patient was given 10 mg diazepam by mouth and dressed into a modified wet suit. The wet suit was cut lengthwise at the arms and legs. Velcro strappings were attached at the cuttings for closure, rapid removal or exposure of the limb(s). After placement of monitoring sensors, they were started on IV fluids of 5% dextrose, 0.5 normal saline with 7 meq K^+, infused at an initial rate of 12 cc/kg/hr. Evaporative heat loss from the head was minimized by a plastic shower cap and towels. A 401AC temperature probe (YSI Incorporated, Yellow Springs, Ohio) was inserted 11 cm. into the rectum. […] A TEEM 100 Metabolic Analysis System (AeroSport Inc., Ann Arbor, Mich.), with a modified face mask and oxygen delivery system (38-40% 02 saturation) for patient comfort and increased accuracy, was attached to the patient. Oxygen consumption (V02), carbon dioxide production (VC02), expired air volume (VE), heart rate (HR), and Kcal of heat produced were measured in 20 second intervals and extrapolated to minute or hourly rates.
# Pretreatment protocol: all medications were stopped 2 weeks prior to treatment. The patient refused taking diazepam, placement of a Foley catheter and oxygen face mask. They dressed themself into a dry cold water immersion suit (Stearns, ISS-590I, Universal Adult) designed to prevent heat loss and modified for easy placement of physiologic monitors. Equipment for measurement of heart rate, temperature, carbon dioxide production and Kcal of heat produced were conducted as outlined in Example 1. An oral breathing tube was used to measure V02 from room air. Urine output was measured when the patient voluntarily urinated through a “Texas” catheter (superficial condom tightly fitted around the head of the penis with tubing connected to urine collection bag). The patient was informed that hyperthermia would be administered as tolerated by their stamina and monitored clinical parameters, not to exceed 5 hours, on a daily or every other day basis, for a total of 5 sessions.
# Pretreatment protocol: the evening prior treatment the patient was instructed not to eat and dress in cotton undergarments. Approximately 4 hours prior to treatment 2 mg alprazolam was administered by mouth. The patient dressed themself into a dry cold water immersion suit (Stearns, previously described) with headgear. Monitoring sensors, including EKG display, IV fluids and Foley catheter were attached and the suit was zipped closed. The patient opted for oxygen supplementation. The modified face mask was connected to the TEEM 100 metabolic Analysis System for V02 measurements. Data was recorded as previously described.
# Pretreatment protocol: the patient was transfused with three units of packed red blood cells. A Foley catheter was inserted on each day of treatment. They were covered in a water soaked blanket containing a polyethylene lining. A shower cap with towels was used to prevent heat loss from the head. Intravenous lines were placed into both arms with 19 gauge intracaths. EKG, heart rate, rectal thermistor, and V02 monitors were attached. Oxygen supplemented facemask and equipment was attached and data monitored as previously described under Example 1.
# Pretreatment protocol: the patient was transfused with 2 units of packed red blood cells 48 hours prior to undergoing treatment. Intravenous fluids (Lactated Ringer's solution) were administered at a rate of 100 cc/hour. […]
# [2] = DNP enhancement, one year after diagnosis and therapy
# [3] = Example 3, peak after second dose of 2.0 mg/kg DNP
# [4] = Example 3, stable plateau after additional 1.0 mg/kg DNP
# [5] = Example 4, DNP 1 mg/kg + 3 x 0.5 mg/kg after mephenteramine
structure (smiles),measurement,setting,value
"O=[N+]([O-])c1ccc(O)c([N+](=O)[O-])c1 [DNP, 2,4-dinitrophenol]",DNP enhanced PET-FDG scan finding,"glioma; 300 mg oral DNP, none without DNP",two areas of hypermetabolism
same,"metabolic grade of FDG uptake, selected target",glioma; DNP enhanced PET-FDG scan,III
same,"metabolic grade, hypermetabolic component in the tumor area",glioma; [2],II
same,"metabolic grade, remaining viable tumor",glioma; [2],I
same,rectal body temperature,"[1]; Example 1, DNP 1 + 3 mg/kg IV plus glucagon, maintained about 1 hour",40 °C
same,post-treatment toxicity,"[1]; Example 1, DNP with glucagon",No immediate or delayed post-treatment toxicity
same,V02 above baseline,"[1]; Example 1, stabilized after initial 1 mg/kg DNP IV",40%
same,V02,"[1]; Example 2, 15 minutes after initial 2 mg/kg DNP, baseline 300 cc/min",340-380 cc/min
same,V02,"[1]; Example 2, after additional 2 mg/kg DNP infusion",610-630 cc/min
same,blood pressure,"[1]; Example 2, gradual fall noted at 90 minutes",100/60
same,repeat blood work,"[1]; Example 2, on days of treatment","no significant hematologic, electrolyte, liver or kidney changes from baseline"
same,tolerability of the procedure,"[1]; Example 2, period of 7 hours",without any untoward effects
same,body core temperature,"[1]; Example 2, within 60 minutes, DNP 2 + 2 mg/kg",39.4 °C
same,tolerability of the procedure,[1]; Example 3,experienced no problems during the procedure but was noticeably fatigued by hour 3
same,oral temperature,"[1]; Example 3, 6.5 to 7 hours after treatment, with chills and malaise",38.7 degrees centigrade
same,V02 per kg,"[1]; Example 3, after 1 mg/kg DNP, baseline 3.7",5.3 cc/kg/min
same,V02,"[1]; Example 3, after 1 mg/kg DNP, baseline 220 cc/min",250 cc/min
same,V02,[1]; [3],400 cc/min
same,V02 per kg,[1]; [3],8.8 cc 02/kg/min
same,V02,[1]; [4],600 cc/min
same,V02 per kg,[1]; [4],10.8 cc/kg/min
same,V02,[1]; [5],780-820 cc/min
same,"core temperature, maximum",[1]; [5],41.4 °C
same,plateau temperature,"[1]; Example 4, maintained 2 hours and 30 minutes",41.5 °C
same,VO2 uptake above baseline,"[1]; Example 7, 300 mg capsule of DNP orally, three hours before, immediately prior to emission scan",40%
same,VO2 above baseline,"[1]; Example 8, DNP 1 + 2 mg/kg IV",50%
same,blood pressure and cardiac rates,[1]; Example 9,remained within normal limits
same,VO2,"[1]; Example 9, 15 minutes after additional 1 mg/kg DNP",420 cc/minute
same,VO2,"[1]; Example 9, 20 minutes after 2 mg/kg DNP IV, baseline 250 cc/minute",340-360 cc/minute
same,VO2,"[1]; Example 9, 20 minutes after additional 1 mg/kg DNP at hour 3",450-500 cc/minute
same,tolerability of the procedure,"[1]; Example 9, 6 hours",without any adverse effects
same,"rectal probe temperature increase over baseline, maximum","[1]; Example 9, DNP with methylene blue",1.3 °C
same,general toxicity,"[1]; Example 9, at any time during treatment",no evidence of general toxicity
same,VO2,"[1]; Example 9, declined by hour 3",360-380 cc/minute
same,fatigue,[1]; Example 10,notably fatigued at hour 5
same,sweating,[1]; Example 10,sweat profusely
same,VO2,"[1]; Example 10, 20 minutes after 1 mg/kg DNP, baseline 160 cc/min, interferon-alpha 6 hours before",approximately 210 cc/min
same,VO2,"[1]; Example 10, 20 minutes after additional 2 mg/kg DNP",420 cc/min
same,VO2,"[1]; Example 10, 20 minutes after additional 2.0 mg/kg DNP",360 cc/min
same,VO2,"[1]; Example 10, declined two hours after last dose",280 cc/min
same,rectal temperature above normal baseline,"[1]; Example 10, no efforts to prevent body heat loss",≤ 1.3 °C
same,VO2,"[1]; Example 10, peak 20 minutes after second dose of 1 mg/kg DNP",250 cc/min
